This is an account of results in paper PMC9952136 (Antibiotics, 2023).

Series [1] relates to P-gp. As to the kind of experiment: mRNA and protein expression of P-gp in liver and small intestine of treated broilers. In kind it is in vivo, broiler. Conditions: single gavage compared with the saline group. On the procedure: (§1) The relative expressions of CYP3A4, P-gp and BCRP in tissue of broiler and Caco-2 were evaluated via quantitative real-time PCR (RT–qPCR, Bio-Rad, Hercules, CA, USA). […] Relevant cells were treated as indicated and total RNA was extracted from cells and tissue using RNA isolater Total RNA Extraction Reagent (R401-01, Vazyme Biotech Co., Ltd., Nanjing, China) following the manufacturer’s protocols, then reverse-transcribed into cDNA using HiScript II Q Select RT SuperMix for Qpcr (R233-01, Vazyme Biotech Co., Ltd.). The cDNA was determined by quantitative RT-PCR using 2 × AceQ qPCR SYBR Green Master Mix (Q141-02, Vazyme Biotech Co., Ltd.) with the primers (listed in Supplementary Tables S1 and S2). All data were analyzed using the 2−ΔΔCt method.
(§2) These were then collected in a RIPA lysis buffer (P0013B, Beyotime, Shanghai, China) and incubated on a rocker with ice for 30 min. […] Proteins were transferred into a polyvinylidene fluoride (PVDF) membrane (Bio-Rad) and then incubated with the CYP3A4 Rabbit pAb (Cat#A2544, ABclonal, Wuhan, China), ABCG2 Rabbit pAb (Cat#A5661, ABclonal, Wuhan, China), P-gp Rabbit pAb (Cat#A11747, ABclonal, Wuhan, China) over night, respectively. […] The immunoreactive bands were visualized on a gel imaging system (Tanon 5200 Multi, Tanon Technology Co., Ltd., Shanghai, China), and the intensities of the immunoreactive bands were quantified using Quantity One.

A further series concerns human P-gp. Set-up: method as in PMID 21573958. Conditions: compared with P-gp inhibitor verapamil (Ver); cited from earlier work.
For series [2], the system named is P-gp. Also noted: method as in PMID 30989413. Conditions: cited from earlier work.
For another series, the system named is broiler CYP2A6. In kind it is in vitro ADME. Conditions: microsomes. The procedure: (§3) Probe drugs: a volume of 0.2 mL cold acetonitrile were added into 0.05 mL microsome incubation solution, then vortexed for 2 min to extract target compounds. The mixture was centrifuged at 12,000 rpm for 15 min. The supernatant was filtered through a 0.2 μm filter.
The test system of another series is BCRP. The series is described as follows: mRNA and protein expression of BCRP in liver and small intestine of treated broilers. In kind it is in vivo, broiler. The procedure: as §1, §2
Another series can be described thus: in vivo. The settings on record: po, 6 mg/kg.
For series [3] the following is noted: in vivo, po, 6 mg/kg.
Description: (§4) Mobile phase compositions were 0.5 mol/L H3PO4-triethylamine (pH = 2.4, phase A) and acetonitrile (phase B) (82:18, v/v) [1, 18].
(§5) SAL (Shandong Lukang, Jining, China): The LC-MS/MS assay method for SAL were introduced in the previous research [21]. The separate system of HPLC used 0.1% formic acid solution (phase A) and methanol (phase B) as mobile phase. […] Positive ion scanning mode was used; DP, CE, and CXP are 59.1 V, 65.64 V, and 12 V, respectively.
(§6) Plasma sample: Add 0.8 mL of acetonitrile to 0.2 mL of plasma to precipitate proteins. After vortexing the mixture for 5 min, centrifuge at 12,000 rpm for 10 min. Transfer the supernatant to a new 10 mL tube. The supernatant was blown dry with nitrogen at 40 °C, and the pellet was redissolved with 1 mL of methanol. The methanol reconstituted solution was filtered through a 0.2 μm filter.
(§7) PK parameters were calculated with WinNonlin software using non-compartmental settings (version 6.4; Pharsight Corporation, Mountain View, CA, USA).
The subject of another series is CYP3A4 (broiler). As to the kind of experiment: Probe substrate (testosterone) assay of CYP3A4 activity in broiler liver microsomes. In kind it is in vitro ADME. Conditions: broiler, chicken (broiler), microsomes. On the procedure:
as §3
[…]. […] Except for testosterone, which was incubated for 30 min, all other probe drugs were incubated for 4 h.

A further series has as its system broiler CYP2E1. As to the kind of experiment: Probe substrate assay of CYP2E1 activity in broiler liver microsomes. Type of series: in vitro ADME. On the procedure:
Probe drugs: a volume of 0.2 mL cold acetonitrile were added into 0.05 mL microsome incubation solution, then vortexed for 2 min to extract target compounds. […] The supernatant was filtered through a 0.2 μm filter.
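Wherever AUC0-48h is given: plasma drug levels measured by HPLC or LC-MS/MS, with PK parameters obtained through non-compartmental analysis in WinNonlin.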
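Wherever MRT0-48h is given: plasma drug levels measured by HPLC or LC-MS/MS, with PK parameters obtained through non-compartmental analysis in WinNonlin.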
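Wherever MRT0-∞ is given: plasma drug levels measured by HPLC or LC-MS/MS, with PK parameters obtained through non-compartmental analysis in WinNonlin.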
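Wherever Tmax is given: plasma drug levels measured by HPLC or LC-MS/MS, with PK parameters obtained through non-compartmental analysis in WinNonlin.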

Description for in vivo: as §4, §5, §6, §7

With `CC[C@@H](C(=O)[C@@H](C)[C@@H](O)[C@H](C)[C@@H]1O[C@@H]([C@@H](CC)C(=O)O)CC[C@@H]1C)[C@H]1O[C@]2(C=C[C@@H](O)[C@]3(CC[C@@](C)([C@H]4CC[C@](O)(CC)[C@H](C)O4)O3)O2)[C@H](C)C[C@@H]1C` [SAL, salinomycin], the “effect on P-gp gene expression levels in the liver and small intestine” value with P-gp [1] is “suppress”. Moreover, in the series on human P-gp, the “inhibition of human P-gp” value is “effectively inhibit”. The “effect on P-gp in A549 cells” value in the series with P-gp [2] (5 μM SAL, 30 min and 1 h) was “no significant effect”. The “effect on expression of P-gp in A549 cells” value with P-gp [2] (SAL treatment for 72 h) is on record as “significantly induced”. For the same compound, the “effect on CYP2A6 activity” value in the series on broiler CYP2A6 is reported as “inductive effects”. Further, the “effect of SAL on expression of BCRP” value with BCRP (ENR + SAL group compared with single ENR group) is “significantly inhibited”. Further, the “effect of SAL on expression of BCRP” value in the series with BCRP (SAL (5d) + ENR group compared with single ENR group) is “significantly induced”. The compound also gave a k el in the series “in vivo” (AA broiler, Ke) of 1.39e-05 s⁻¹. Further, in “in vivo” (AA, Tmax), the Tmax is 0.42 ± 0.3 h. The compound also gave a half-life in “in vivo” (AA, t1/2) of 14.2 ± 3.1 h. In addition, in series [3] (AA broiler), the MRT0-48h was 5.53 ± 1.16 h and the “MRT0-∞” value was 7.53 ± 2.39 h. For the same compound, in [3] (AA), the AUC0-48h is 218.96 ± 42.32 ng·h/mL and the “AUC0-∞” value turned out to be 264.78 ± 40.60 ng·h/mL. This compound yielded an inhibition at 30 min, 100 µmol/L in the series with CYP3A4 (broiler) of 52%.
In the case of `CC[C@@H](C(=O)[C@@H](C)[C@@H](O)[C@H](C)CCc1ccc(C)c(O)c1C(=O)O)[C@H]1O[C@](CC)([C@H]2CC[C@](O)(CC)[C@H](C)O2)C[C@@H]1C` [LAS, lasalocid], the “effect on CYP2E1 activity” value in the series with broiler CYP2E1 is reported as “inductive effects”.
